According to patent US20120053165A1, “Novel Phenyl Imidazoles and Phenyl Triazoles As Gamma-Secretase Modulators” (Pfizer Inc., priority 2009, published 2012):
Where a name gives a salt, the structure may show the parent alone.
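Further: Aβ(1-42) released into conditioned medium captured by ELISA after roughly 24 h compound exposure, vehicle and inhibitor controls defining maximal and minimal inhibition.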

These compounds were tested on production of amyloid beta protein Aβ(1-42) in human WT-APP overexpressing CHO cells. Conditions: Homo sapiens, CHO, read-out: Aβ 42 IC50.
Protocol: Cell-Based γ-Secretase Assay with ELISA Readout
The ability of compounds to modulate production of amyloid beta protein Aβ(1-42) was determined using human WT-APP overexpressing CHO cells. Cells were plated at 22,000 cells/100 μL well in 96 well tissue culture treated, clear plates (Falcon) in DMEM/F12 based medium and incubated for 24 hours at 37° C. […] Compounds were added in fresh medium to achieve 1% final DMSO. Appropriate vehicle and inhibitor controls were added to obtain maximum and minimum inhibition values for the assay before the plates were incubated for about 24 hours at 37° C.
Coating of ELISA assay plates was initiated by addition of 50 μL/well of an in house Aβ(1-42) specific antibody at (4 μg/mL) in 0.1 M NaHCO3 (pH 9.0) into black 384-well Maxisorp® plates (Nunc) and incubated overnight at 4° C. […] Ambient temperature incubation was allowed to proceed for a minimum of two hours before washing 2×100 μL with Wash Buffer (Dulbecco's PBS, 0.05% Tween 20). Assay Buffer (Dulbecco's PBS, 1.0% BSA (Sigma A7030), 0.05% Tween 20) 20 μL/well is then added.
After incubation overnight at 37° C., 5% CO2, 40 μL (in duplicate) of experimental conditioned media are transferred into wells of the blocked ELISA plates containing the capture antibody, followed by overnight incubation at 4° C.
After overnight incubation of the ELISA assay plates at 4° C., unbound Aβ peptides were removed thorough (4×100 μL) washes with Wash Buffer.
COc1cc(C(=O)NC2COc3ccc(Cl)cc32)ccc1-n1cnc(C)c1 (single isomer, unassigned) [Example 128, N-(5-chloro-2,3-dihydro-1-benzofuran-3-yl)-3-methoxy-4-(4-methyl-1H-imidazol-1-yl)benzamide] gave an IC50 of 521 nM.

Same assay, conditions: Homo sapiens, CHO, read-out: Aβ 42 IC50, Geometric mean of 2-8 determinations; human WT-APP overexpressing CHO cells
COc1cc(C(=O)NC2COc3c(F)cc(Cl)cc32)ccc1-n1cnc(C)c1 (single isomer, unassigned) [Example 127, N-(5-chloro-7-fluoro-2,3-dihydro-1-benzofuran-3-yl)-3-methoxy-4-(4-methyl-1H-imidazol-1-yl)benzamide trifluoroacetate salt] showed an IC50 of 521 nM. With COc1cc(C(=O)NCc2csc3ccc(Cl)cc23)ccc1-n1cnc(C)c1 [Example 9, N-[(5-chloro-1-benzothien-3-yl)methyl]-3-methoxy-4-(4-methyl-1H-imidazol-1-yl)benzamide] the IC50 was 158 nM. COc1cc(C(=O)Nc2[nH]nc(C)c2-c2cccc(C(F)(F)F)c2)ccc1-n1cnc(C)c1 [Example 10, 3-methoxy-4-(4-methyl-1H-imidazol-1-yl)-N-{3-methyl-4-[3-(trifluoro-methyl)phenyl]-1H-pyrazol-5-yl}benzamide] showed an IC50 of 245 nM. For COc1cc(C(=O)N2CC[C@@H](Oc3ccccc3C(F)(F)F)C2)ccc1-n1cnc(C)c1 [Example 11, 1-[2-methoxy-4-({(3R)-3-[2-(trifluoromethyl)phenoxy]pyrrolidin-1-yl}carbonyl)phenyl]-4-methyl-1H-imidazole], the IC50 was 96 nM. COc1cc(C(=O)NCc2cc3cc(Cl)ccc3[nH]2)ccc1-n1cnc(C)c1 [Example 15, N-[(5-chloro-1H-indol-2-yl)methyl]-3-methoxy-4-(4-methyl-1H-imidazol-1-yl)benzamide] was tested, and the IC50 was 547 nM. COc1cc(C(=O)N2CC(c3cccc(Cl)c3)C2)ccc1-n1cnc(C)c1 [Example 18, 1-(4-{[3-(3-chlorophenyl)azetidin-1-yl]carbonyl}-2-methoxy-phenyl)-4-methyl-1H-imidazole] showed an IC50 of 660 nM. COc1cc(C(=O)N2CCCC[C@H]2c2ccc(C(F)(F)F)cc2)ccc1-n1cnc(C)c1 [Example 23, (2S)-1-[3-methoxy-4-(4-methyl-1H-imidazol-1-yl)benzoyl]-2-[4-(trifluoro-methyl)phenyl] piperidine] showed an IC50 of 838 nM. Work on COc1cc(C(=O)N2CC[C@H](Oc3ccccc3C(F)(F)F)C2)ccc1-n1cnc(C)c1 [Example 34, 1-[2-methoxy-4-({(3S)-3-[2-(trifluoro-methyl)phenoxy]pyrrolidin-1-yl}carbonyl)phenyl]-4-methyl-1H-imidazole, formic acid salt] yielded an IC50 of 297 nM.

Same assay, conditions: Homo sapiens, CHO, read-out: GM Aβ 42B IC50, Geometric Mean of 2-8 Determinations; human WT-APP overexpressing CHO cells
COc1cc(C(=O)NCCc2cccc(C#N)c2)ccc1-n1cnc(C)c1 [Example 1, N-[2-(3-cyanophenyl)ethyl]-3-methoxy-4-(4-methyl-1H-imidazol-1-yl)benzamide] was tested, and the IC50 was 2920 nM. For COc1cc(C(=O)NCC(C)(O)c2ccc(Cl)cc2)ccc1-n1cnc(C)c1 (stereo not drawn) [Example 2, N-[2-(4-chlorophenyl)-2-hydroxypropyl]-3-methoxy-4-(4-methyl-1H-imidazol-1-yl)benzamide], the IC50 was 942 nM. Compound C#CCOc1cc(C(=O)NCCc2cccc(Cl)c2)ccc1-n1cnc(C)c1 [Example 3, N-[2-(3-chlorophenyl)ethyl]-4-(4-methyl-1H-imidazol-1-yl)-3-(prop-2-yn-1-yloxy)benzamide] has an IC50 of 341 nM. In the case of COc1cc(C(=O)NCc2cc(-c3cccc(Cl)c3)no2)ccc1-n1cnc(C)c1 [Example 4, N-{[3-(3-chlorophenyl)isoxazol-5-yl]methyl}-3-methoxy-4-(4-methyl-1H-imidazol-1-yl)benzamide], the IC50 is reported as 330 nM. Work on COc1cc(C(=O)NCc2nnc(-c3cccc(Cl)c3)o2)ccc1-n1cnc(C)c1 [Example 5, N-{[5-(3-chlorophenyl)-1,3,4-oxadiazol-2-yl]methyl}-3-methoxy-4-(4-methyl-1H-imidazol-1-yl)benzamide] yielded an IC50 of 1460 nM. Work on COc1cc(C(=O)NCCc2cccc(Cl)c2)ccc1-n1cnc(C)n1 [Example 6, N-[2-(3-chlorophenyl)ethyl]-3-methoxy-4-(3-methyl-[1,2,4]triazol-1-yl)benzamide] yielded an IC50 of 4210 nM. With Cc1cn(-c2ccc(C(=O)NCC3(c4cccc(C(F)(F)F)c4)CCOCC3)cc2F)cn1 [Example 7, 3-fluoro-4-(4-methyl-1H-imidazol-1-yl)-N-({4-[3-(trifluoromethyl)phenyl]tetrahydro-2H-pyran-4-yl}methyl)benzamide, formic acid salt] the IC50 was 2190 nM. Cc1cn(-c2ccc(C(=O)NCCc3cccc(Cl)c3)cc2F)cn1 [Example 8, N-[2-(3-chlorophenyl)ethyl]-3-fluoro-4-(4-methyl-1H-imidazol-1-yl)benzamide] gave an IC50 of 960 nM.

Same assay, conditions: read-out: Aβ 42 IC50; Geometric mean of 2-8 determinations; human WT-APP overexpressing CHO cells
For COc1cc(C(=O)NCc2cccc(C(F)(F)F)c2)ccc1-n1cnc(C)c1 [Example 14, 3-methoxy-4-(4-methyl-1H-imidazol-1-yl)-N-[3-(trifluoro-methyl)benzyl] benzamide], the IC50 was 447 nM. COc1cc(C(=O)NCc2cnc(-c3ccccc3)s2)ccc1-n1cnc(C)c1 [Example 16, 3-methoxy-4-(4-methyl-1H-imidazol-1-yl)-N-[(2-phenyl-1,3-thiazol-5-yl)methyl] benzamide] was tested, and the IC50 was 283 nM. Work on COc1cc(C(=O)NCc2noc3ccc(Cl)cc23)ccc1-n1cnc(C)c1 [Example 17, N-[(5-chloro-1,2-benz-isoxazol-3-yl)methyl]-3-methoxy-4-(4-methyl-1H-imidazol-1-yl) benzamide] yielded an IC50 of 371 nM. Compound COc1cc(C(=O)NCC2(c3cccc(C(F)(F)F)c3)CCOCC2)ccc1-n1cnc(C)c1 [Example 19, 3-methoxy-4-(4-methyl-1H-imidazol-1-yl)-N-({4-[3-(tri-fluoromethyl)phenyl]tetrahydro-2H-pyran-4-yl}methyl) benzamide] has an IC50 of 757 nM. COc1cc(C(=O)N(C)Cc2cccc(C(F)(F)F)c2)ccc1-n1cnc(C)c1 [Example 20, 3-methoxy-N-methyl-4-(4-methyl-1H-imidazol-1-yl)-N-[3-(trifluoro-methyl)benzyl] benzamide] showed an IC50 of 997 nM. Work on COc1cc(C(=O)NCCc2cccc(Cl)c2)ccc1-n1cnc(C)c1 [Example 21, N-[2-(3-chloro-phenyl)ethyl]-3-methoxy-4-(4-methyl-1H-imidazol-1-yl) benzamide] yielded an IC50 of 629 nM. COc1cc(C(=O)N(C)Cc2ccc3ccccc3c2)ccc1-n1cnc(C)c1 [Example 22, 3-methoxy-N-methyl-4-(4-methyl-1H-imidazol-1-yl)-N-(2-naphthyl-methyl) benzamide] showed an IC50 of 977 nM. COc1cc(C(=O)NCCc2cccc(C(F)(F)F)c2)ccc1-n1cnc(C)c1 [Example 24, 3-methoxy-4-(4-methyl-1H-imidazol-1-yl)-N-{2-[3-(tri-fluoromethyl)phenyl]ethyl} benzamide] was tested, and the IC50 was 438 nM. COc1cc(C(=O)NCCc2c[nH]c3ccc(Cl)cc23)ccc1-n1cnc(C)c1 [Example 25, N-[2-(5-chloro-1H-indol-3-yl)ethyl]-3-methoxy-4-(4-methyl-1H-imidazol-1-yl) benzamide] gave an IC50 of 195 nM. With COc1cc(C(=O)NC(C)(C)c2ccc(F)c(F)c2)ccc1-n1cnc(C)c1 [Example 26, N-[1-(3,4-difluoro-phenyl)-1-methylethyl]-3-methoxy-4-(4-methyl-1H-imidazol-1-yl) benzamide] the IC50 was 787 nM. In the case of COc1cc(C(=O)NCC2(c3ccccc3)CCCC2)ccc1-n1cnc(C)c1 [Example 27, 3-methoxy-4-(4-methyl-1H-imidazol-1-yl)-N-[(1-phenyl-cyclopentyl)methyl] benzamide], the IC50 is reported as 175 nM. Work on COc1cc(C(=O)NCC2(c3ccc(C(F)(F)F)cc3)CCOCC2)ccc1-n1cnc(C)c1 [Example 28, 3-methoxy-4-(4-methyl-1H-imidazol-1-yl)-N-({4-[4-(tri-fluoromethyl)phenyl]tetrahydro-2H-pyran-4-yl}methyl) benzamide] yielded an IC50 of 188 nM. With COc1cc(C(=O)NC(CCC(C)C)c2ccc(C(F)(F)F)cc2)ccc1-n1cnc(C)c1 (stereo not drawn) [Example 29, 3-methoxy-4-(4-methyl-1H-imidazol-1-yl)-N-{4-methyl-1-[4-(trifluoro-methyl)phenyl]pentyl} benzamide] the IC50 was 861 nM. COc1cc(C(=O)NCC2(c3ccc(Cl)cc3)CC2)ccc1-n1cnc(C)c1 [Example 30, N-{[1-(4-chlorophenyl)cyclopropyl]methyl}-3-methoxy-4-(4-methyl-1H-imidazol-1-yl) benzamide] gave an IC50 of 231 nM. With COc1cc(C(=O)NCC2(c3cccc(C(F)(F)F)c3)CCC2)ccc1-n1cnc(C)c1 [Example 31, 3-methoxy-4-(4-methyl-1H-imidazol-1-yl)-N-({1-[3-(tri-fluoromethyl)phenyl]cyclobutyl}methyl) benzamide] the IC50 was 298 nM. With COc1cc(C(=O)NC(C)(C)c2cccc(C(F)(F)F)c2)ccc1-n1cnc(C)c1 [Example 32, 3-methoxy-4-(4-methyl-1H-imidazol-1-yl)-N-{1-methyl-1-[3-(trifluoro-methyl)phenyl]ethyl} benzamide] the IC50 was 619 nM. COc1cc(C(=O)NCC2(c3ccc(C(F)(F)F)cc3)CCCC2)ccc1-n1cnc(C)c1 [Example 33, 3-methoxy-4-(4-methyl-1H-imidazol-1-yl)-N-({1-[4-(trifluoro-methyl)phenyl]cyclopentyl}methyl) benzamide, formic acid salt] was tested, and the IC50 was 139 nM.

Same assay, conditions: read-out: Aβ 42 IC50; Geometric mean of 26 determinations; human WT-APP overexpressing CHO cells
COc1cc(C(=O)NCC2(c3ccc(F)cc3)CCC2)ccc1-n1cnc(C)c1 [Example 13, N-{[1-(4-fluorophenyl)cyclobutyl]methyl}-3-methoxy-4-(4-methyl-1H-imidazol-1-yl) benzamide] showed an IC50 of 261 nM.

Same assay, conditions: read-out: Aβ 42 IC50; Geometric mean of at least 2 determinations; human WT-APP overexpressing CHO cells
In the case of “1-[4-({3-[(chloro- 5-methylphenoxy) methyl]azetidin- 1-yl}carbonyl)-2- methoxyphenyl]- 4-methyl-1H- imidazole trifluoroacetate salt [Example 139]”, the IC50 is reported as 557 nM.
